Source: patent US20100317642A1, “PHARMACEUTICAL COMPOSITION OF ORLISTAT” (INVENTIS DDS PVT LIMITED, priority 2007, published 2010)

Legend:
[1] = Effect of elevated temperature on appearance and handling properties (hot air oven, Petri dishes); format: physicochemical; details: for Appearance and handling properties at elevated temperature: hot air oven
From the text: The affect of elevated temperature on appearance and handling properties on the orlistat compositions of this invention was studied by slowly increasing the temperature of a hot air oven in which these compositions were kept in Petri dishes. Pure orlistat also was subjected to this study. To carry out a comparison with the innovator's formulation Xenical®, its contents were emptied in a Petri dish. The observations of this study are given below—

[2] = within the physiological pH range; cited from earlier work

In the case of `CCCCCCCCCCC[C@@H](C[C@@H]1OC(=O)[C@H]1CCCCCC)OC(=O)[C@H](CC(C)C)NC=O` [Orlistat, orlistat], the “Appearance and handling properties at elevated temperature” value (“Appearance and handling properties” below) ([1]; 30 ° C.) is reported as “No change”, the “Appearance and handling properties” value ([1]; 35 ° C., -do- = same as cell above) is reported as “-do-” and the “Appearance and handling properties” value ([1]; 37 ° C., -do- = same as cell above) is reported as “softens”. The “Appearance and handling properties” value ([1]; 40 ° C.) was “Starts melting”, the “Appearance and handling properties” value ([1]; 45 ° C., cells wrap: 'Slightly soft and sticky', 'Melts completely') was “Melts” and the “Appearance and handling properties” value ([1]; 50 ° C., -do- = same as cell above, Xenical cell wraps: 'Slightly soft and sticky, becomes powdery on touching') was “-do-”. For the same compound, the “Appearance and hardness after heating” value ([1]; Cooled down to less than 30° C., cells wrap: 'Regains its original hardness', 'Does not retain its original appearance') was “Does not retain” and the solubility in water [2] was “very low solubility”.
